What all share (test): DSF 100 kinase selectivity screen;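 note: compound tested at 20 µM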
Assay type in all cases: binding

For assay [1], the target named is T1, ~100 representative kinases (Homo sapiens, UniProt P17948).
T1 construct: Recombinant protein kinase domains with a concentration of 2 μM
The conditions noted are these: protein FLT1; average of three replicates. In short, it runs like this:
(§1)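 Each kinase domain, at 2 μM, is mixed with 20 μM test compound and SYPRO Orange in Hepes (20 mM, pH 7.5) with 500 mM NaCl. Temperature is then raised at 3°C/min and fluorescence-monitored unfolding yields the melting temperature change, ΔTm in degrees Celsius.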

Assay [2] addresses T2, ~100 representative kinases (Homo sapiens, UniProt Q13554).
T2 construct: Recombinant protein kinase domains with a concentration of 2 μM
The conditions noted are these: Protein CAMK2B; average of three replicates. In a few lines: as §1

The target in assay [3] is T3, ~100 representative kinases (Homo sapiens, UniProt O96017).
T3 construct: Recombinant protein kinase domains with a concentration of 2 μM
The conditions noted are these: Protein CHEK2; average of three replicates. In a few lines: as §1

For assay [4], the target named is T4, ~100 representative kinases (Homo sapiens, UniProt P54762).
T4 construct: Recombinant protein kinase domains with a concentration of 2 μM
T4 sequence (P54762 18-984): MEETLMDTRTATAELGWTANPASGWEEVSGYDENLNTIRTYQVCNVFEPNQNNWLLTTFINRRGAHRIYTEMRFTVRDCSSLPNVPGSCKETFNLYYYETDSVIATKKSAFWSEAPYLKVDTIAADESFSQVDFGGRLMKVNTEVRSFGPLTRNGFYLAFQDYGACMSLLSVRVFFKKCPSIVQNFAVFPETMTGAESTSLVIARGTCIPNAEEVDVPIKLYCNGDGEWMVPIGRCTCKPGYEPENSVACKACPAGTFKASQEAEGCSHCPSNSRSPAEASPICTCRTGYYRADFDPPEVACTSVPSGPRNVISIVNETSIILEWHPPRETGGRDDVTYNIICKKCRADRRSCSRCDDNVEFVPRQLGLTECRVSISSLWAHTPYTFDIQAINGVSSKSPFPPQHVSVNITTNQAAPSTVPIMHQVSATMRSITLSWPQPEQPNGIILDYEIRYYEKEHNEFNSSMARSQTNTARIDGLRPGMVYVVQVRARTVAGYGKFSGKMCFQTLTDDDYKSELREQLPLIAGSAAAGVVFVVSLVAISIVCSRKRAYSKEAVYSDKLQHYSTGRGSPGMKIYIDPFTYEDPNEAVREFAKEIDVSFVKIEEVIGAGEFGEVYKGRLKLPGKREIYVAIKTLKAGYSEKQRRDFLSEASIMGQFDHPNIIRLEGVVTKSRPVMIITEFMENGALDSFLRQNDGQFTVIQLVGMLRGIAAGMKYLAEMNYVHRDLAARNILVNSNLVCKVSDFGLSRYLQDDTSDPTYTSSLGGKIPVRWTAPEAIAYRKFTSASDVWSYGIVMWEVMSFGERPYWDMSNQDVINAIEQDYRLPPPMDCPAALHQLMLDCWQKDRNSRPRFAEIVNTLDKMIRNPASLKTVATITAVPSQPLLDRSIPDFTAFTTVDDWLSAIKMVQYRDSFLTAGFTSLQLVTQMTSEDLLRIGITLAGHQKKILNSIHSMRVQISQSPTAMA
The conditions noted are these: Protein EPHB1; average of three replicates. In short, it runs like this: as §1

The target in assay [5] is T5, ~100 representative kinases (Homo sapiens, UniProt P49137).
T5 construct: Recombinant protein kinase domains with a concentration of 2 μM
The conditions noted are these: protein MAPKAPK2; average of three replicates. In a few lines: as §1

Assay [6] has as its target T6, ~100 representative kinases (Homo sapiens, UniProt Q8TDX7).
T6 construct: Recombinant protein kinase domains with a concentration of 2 μM
The conditions noted are these: protein NEK7; average of three replicates. In a few lines:
as §1

For assay [7], the target named is T7, ~100 representative kinases (Homo sapiens, UniProt Q13043).
T7 construct: Recombinant protein kinase domains with a concentration of 2 μM
T7 sequence (Q13043 1-487): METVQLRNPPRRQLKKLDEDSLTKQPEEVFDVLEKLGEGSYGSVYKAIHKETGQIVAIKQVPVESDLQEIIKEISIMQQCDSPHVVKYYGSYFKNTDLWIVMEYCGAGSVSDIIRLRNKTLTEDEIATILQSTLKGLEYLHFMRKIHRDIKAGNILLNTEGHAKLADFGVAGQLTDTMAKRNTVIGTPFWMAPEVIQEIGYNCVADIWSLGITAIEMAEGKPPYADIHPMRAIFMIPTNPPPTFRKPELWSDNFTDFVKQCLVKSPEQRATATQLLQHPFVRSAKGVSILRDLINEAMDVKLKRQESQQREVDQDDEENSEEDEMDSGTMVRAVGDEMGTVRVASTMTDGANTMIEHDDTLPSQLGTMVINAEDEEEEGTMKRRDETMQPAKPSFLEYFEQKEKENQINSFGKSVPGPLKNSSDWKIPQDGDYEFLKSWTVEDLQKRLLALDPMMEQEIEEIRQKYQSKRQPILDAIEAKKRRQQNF
The conditions noted are these: Protein STK4; DSF; average of three replicates. In a few lines: as §1

The target of assay [8] is T8, ~100 representative kinases (Homo sapiens, UniProt P51955).
T8 construct: Recombinant protein kinase domains with a concentration of 2 μM
T8 sequence (P51955 1-445): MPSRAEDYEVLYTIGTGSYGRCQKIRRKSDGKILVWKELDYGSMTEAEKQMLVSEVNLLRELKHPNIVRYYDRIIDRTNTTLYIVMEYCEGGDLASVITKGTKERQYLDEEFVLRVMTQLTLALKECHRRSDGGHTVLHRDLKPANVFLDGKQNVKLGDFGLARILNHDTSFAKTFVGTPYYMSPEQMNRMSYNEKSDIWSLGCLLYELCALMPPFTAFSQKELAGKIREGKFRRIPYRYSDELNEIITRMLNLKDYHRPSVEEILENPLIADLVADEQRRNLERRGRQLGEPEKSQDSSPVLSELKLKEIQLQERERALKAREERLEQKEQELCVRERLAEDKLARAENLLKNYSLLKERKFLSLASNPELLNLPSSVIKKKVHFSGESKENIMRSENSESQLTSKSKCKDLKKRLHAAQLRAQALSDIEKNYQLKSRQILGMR
To be noted: protein NEK2; average of three replicates. In short, it runs like this:
as §1

Assay [9] addresses T9, ~100 representative kinases (Homo sapiens, UniProt P19784).
T9 construct: Recombinant protein kinase domains with a concentration of 2 μM
To be noted: Protein CK2A2; average of three replicates. In a few lines: as §1

The target of assay [10] is T10, ~100 representative kinases (Homo sapiens, UniProt Q9NSY1).
T10 construct: Recombinant protein kinase domains with a concentration of 2 μM
The conditions noted are these: Protein BMP2K; average of three replicates. In a few lines:
as §1

T9 sequence (P19784 whole entry, the tested form may be a part): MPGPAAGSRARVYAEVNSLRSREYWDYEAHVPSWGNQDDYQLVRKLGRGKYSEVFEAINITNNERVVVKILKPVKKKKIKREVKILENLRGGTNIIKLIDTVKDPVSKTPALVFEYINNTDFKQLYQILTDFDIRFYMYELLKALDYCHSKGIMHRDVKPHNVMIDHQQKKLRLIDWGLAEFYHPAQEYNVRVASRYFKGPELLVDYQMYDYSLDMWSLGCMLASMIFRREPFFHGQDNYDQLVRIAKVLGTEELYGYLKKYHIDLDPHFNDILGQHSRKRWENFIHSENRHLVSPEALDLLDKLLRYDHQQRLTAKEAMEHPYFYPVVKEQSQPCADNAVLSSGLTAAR
T6 sequence (Q8TDX7 whole entry, the tested form may be a part): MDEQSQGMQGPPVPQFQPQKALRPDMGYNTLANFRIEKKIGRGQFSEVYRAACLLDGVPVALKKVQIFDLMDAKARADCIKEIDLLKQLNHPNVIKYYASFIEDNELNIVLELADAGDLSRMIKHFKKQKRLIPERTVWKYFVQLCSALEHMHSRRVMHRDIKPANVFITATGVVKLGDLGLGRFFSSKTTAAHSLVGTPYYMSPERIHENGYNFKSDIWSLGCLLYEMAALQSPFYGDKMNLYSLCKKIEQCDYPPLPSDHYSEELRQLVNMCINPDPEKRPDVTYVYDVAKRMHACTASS
T5 sequence (P49137 whole entry, the tested form may be a part): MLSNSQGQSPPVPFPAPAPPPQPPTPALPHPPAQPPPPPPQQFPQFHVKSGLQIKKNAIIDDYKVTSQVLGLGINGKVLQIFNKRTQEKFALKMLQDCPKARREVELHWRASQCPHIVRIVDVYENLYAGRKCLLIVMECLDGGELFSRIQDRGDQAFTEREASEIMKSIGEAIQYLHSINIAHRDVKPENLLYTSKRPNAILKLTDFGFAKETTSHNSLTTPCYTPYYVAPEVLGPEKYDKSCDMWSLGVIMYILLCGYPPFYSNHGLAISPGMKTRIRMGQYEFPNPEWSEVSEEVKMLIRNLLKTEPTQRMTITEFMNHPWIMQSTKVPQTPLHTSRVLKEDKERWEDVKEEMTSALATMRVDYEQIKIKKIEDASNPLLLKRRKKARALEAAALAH
T1 sequence (P17948 27-1338): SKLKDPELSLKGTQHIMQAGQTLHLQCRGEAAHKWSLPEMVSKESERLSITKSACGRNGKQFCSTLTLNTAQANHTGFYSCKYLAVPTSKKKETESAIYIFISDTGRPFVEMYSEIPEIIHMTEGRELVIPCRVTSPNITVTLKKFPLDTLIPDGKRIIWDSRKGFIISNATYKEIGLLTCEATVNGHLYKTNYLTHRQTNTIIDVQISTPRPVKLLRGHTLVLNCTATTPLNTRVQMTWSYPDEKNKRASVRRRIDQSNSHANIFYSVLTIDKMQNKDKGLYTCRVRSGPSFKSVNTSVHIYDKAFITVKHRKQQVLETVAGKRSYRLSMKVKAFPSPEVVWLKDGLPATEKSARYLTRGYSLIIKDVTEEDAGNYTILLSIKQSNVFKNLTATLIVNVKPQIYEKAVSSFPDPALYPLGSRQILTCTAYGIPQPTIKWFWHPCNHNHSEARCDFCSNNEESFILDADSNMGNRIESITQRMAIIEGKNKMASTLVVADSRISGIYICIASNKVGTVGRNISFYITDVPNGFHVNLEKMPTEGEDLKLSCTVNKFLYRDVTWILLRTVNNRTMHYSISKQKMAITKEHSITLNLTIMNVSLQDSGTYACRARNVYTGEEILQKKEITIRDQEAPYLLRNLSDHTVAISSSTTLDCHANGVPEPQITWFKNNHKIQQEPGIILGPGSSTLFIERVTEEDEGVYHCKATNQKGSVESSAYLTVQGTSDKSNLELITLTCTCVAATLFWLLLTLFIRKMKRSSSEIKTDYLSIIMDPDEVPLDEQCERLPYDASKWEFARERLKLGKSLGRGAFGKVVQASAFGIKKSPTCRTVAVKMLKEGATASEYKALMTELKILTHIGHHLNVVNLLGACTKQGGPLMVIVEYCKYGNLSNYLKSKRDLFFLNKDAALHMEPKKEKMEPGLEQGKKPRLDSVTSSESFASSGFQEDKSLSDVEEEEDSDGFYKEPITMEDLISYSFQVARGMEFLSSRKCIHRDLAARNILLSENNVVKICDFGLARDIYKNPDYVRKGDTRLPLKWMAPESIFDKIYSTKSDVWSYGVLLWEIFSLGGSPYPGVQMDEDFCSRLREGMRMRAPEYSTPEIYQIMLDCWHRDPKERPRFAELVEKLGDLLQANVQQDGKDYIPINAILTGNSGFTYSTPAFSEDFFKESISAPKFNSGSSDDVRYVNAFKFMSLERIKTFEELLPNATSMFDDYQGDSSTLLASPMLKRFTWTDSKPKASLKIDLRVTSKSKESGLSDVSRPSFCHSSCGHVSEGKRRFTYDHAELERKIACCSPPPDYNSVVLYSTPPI
T3 sequence (O96017 whole entry, the tested form may be a part): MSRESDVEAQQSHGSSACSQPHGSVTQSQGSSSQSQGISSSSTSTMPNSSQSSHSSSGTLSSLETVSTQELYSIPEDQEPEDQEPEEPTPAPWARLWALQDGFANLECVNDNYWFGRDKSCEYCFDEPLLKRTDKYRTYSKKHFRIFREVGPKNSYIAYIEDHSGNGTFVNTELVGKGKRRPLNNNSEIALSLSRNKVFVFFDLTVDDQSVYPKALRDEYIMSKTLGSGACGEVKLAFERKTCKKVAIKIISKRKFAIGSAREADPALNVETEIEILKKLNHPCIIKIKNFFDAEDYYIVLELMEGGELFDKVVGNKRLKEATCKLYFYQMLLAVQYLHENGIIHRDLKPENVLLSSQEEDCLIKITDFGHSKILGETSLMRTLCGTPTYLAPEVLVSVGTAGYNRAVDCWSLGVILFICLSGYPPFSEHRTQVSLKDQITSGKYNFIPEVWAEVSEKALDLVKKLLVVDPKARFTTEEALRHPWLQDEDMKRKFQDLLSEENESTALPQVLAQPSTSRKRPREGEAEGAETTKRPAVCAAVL
T2 sequence (Q13554 whole entry, the tested form may be a part): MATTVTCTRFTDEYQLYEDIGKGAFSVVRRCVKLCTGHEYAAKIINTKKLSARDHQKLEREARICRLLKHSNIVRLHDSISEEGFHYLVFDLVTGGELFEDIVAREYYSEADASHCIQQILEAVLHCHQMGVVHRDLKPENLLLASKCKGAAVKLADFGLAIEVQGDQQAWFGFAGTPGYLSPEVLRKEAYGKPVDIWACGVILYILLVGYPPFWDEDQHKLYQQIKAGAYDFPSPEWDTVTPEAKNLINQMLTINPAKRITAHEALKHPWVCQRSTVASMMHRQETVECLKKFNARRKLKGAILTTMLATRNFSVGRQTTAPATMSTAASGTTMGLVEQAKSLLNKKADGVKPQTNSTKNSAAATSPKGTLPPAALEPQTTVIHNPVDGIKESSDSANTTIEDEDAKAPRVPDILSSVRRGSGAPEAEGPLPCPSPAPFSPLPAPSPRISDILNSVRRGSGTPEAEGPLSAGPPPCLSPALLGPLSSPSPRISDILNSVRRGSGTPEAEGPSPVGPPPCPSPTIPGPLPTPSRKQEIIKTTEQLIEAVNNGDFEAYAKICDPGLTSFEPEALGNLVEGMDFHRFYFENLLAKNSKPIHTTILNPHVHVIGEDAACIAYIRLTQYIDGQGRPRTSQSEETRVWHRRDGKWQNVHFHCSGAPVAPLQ
T10 sequence (Q9NSY1 whole entry, the tested form may be a part): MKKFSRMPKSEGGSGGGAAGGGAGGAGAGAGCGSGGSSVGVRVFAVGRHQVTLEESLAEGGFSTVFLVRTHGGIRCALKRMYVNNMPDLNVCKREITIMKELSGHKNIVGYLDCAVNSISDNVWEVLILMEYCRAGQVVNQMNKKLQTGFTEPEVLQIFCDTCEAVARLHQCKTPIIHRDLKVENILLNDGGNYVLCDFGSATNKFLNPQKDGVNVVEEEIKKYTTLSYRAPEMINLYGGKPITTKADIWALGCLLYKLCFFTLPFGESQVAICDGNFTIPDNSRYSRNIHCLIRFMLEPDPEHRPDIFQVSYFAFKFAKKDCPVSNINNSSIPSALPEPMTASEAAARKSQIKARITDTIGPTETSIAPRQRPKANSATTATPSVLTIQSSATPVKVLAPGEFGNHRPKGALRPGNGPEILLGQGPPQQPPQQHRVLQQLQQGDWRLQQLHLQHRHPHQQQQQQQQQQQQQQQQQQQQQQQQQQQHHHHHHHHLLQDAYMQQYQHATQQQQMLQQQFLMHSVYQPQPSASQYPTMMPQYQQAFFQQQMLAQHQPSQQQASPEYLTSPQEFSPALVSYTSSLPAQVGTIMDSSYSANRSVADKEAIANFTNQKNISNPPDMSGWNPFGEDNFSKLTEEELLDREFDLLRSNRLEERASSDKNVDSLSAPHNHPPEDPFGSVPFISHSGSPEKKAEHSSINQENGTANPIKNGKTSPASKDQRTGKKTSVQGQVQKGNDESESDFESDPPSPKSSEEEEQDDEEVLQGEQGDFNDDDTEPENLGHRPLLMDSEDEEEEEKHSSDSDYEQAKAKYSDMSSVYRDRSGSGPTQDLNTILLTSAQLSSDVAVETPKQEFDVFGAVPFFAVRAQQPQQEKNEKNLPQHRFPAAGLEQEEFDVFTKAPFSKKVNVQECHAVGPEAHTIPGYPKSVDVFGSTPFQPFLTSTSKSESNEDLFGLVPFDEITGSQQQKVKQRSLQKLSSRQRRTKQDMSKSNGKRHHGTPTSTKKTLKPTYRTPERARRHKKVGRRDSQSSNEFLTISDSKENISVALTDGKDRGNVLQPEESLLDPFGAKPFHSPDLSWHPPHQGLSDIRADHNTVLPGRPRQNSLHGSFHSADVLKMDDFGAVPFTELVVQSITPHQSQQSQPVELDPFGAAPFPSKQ

Regarding `Cc1ccc(C(=O)Nc2ccc(CN3CCN(C)CC3)c(C(F)(F)F)c2)cc1C#Cc1c[nH]c2ncnc(N3CCOCC3)c12` [Compound 1], the dTm in assay [1] is recorded as 4.48 K; in assay [2] it was 0.49 K; in assay [3], 15.46 K; in assay [4] it was 4.85 K; in assay [5], -0.41 K; in assay [6], 1.05 K. The dTm in assay [7] is 7.61 K; in assay [8] it was 4.11 K; in [9], -0.08 K; in assay [10], 7.81 K.

With `O=C(Nc1ccc(F)cc1)C1(C(=O)Nc2cccc(-c3c[nH]c4ncnc(N5CCOCC5)c34)c2)CC1` [Compound 2], the dTm in assay [1] is on record as 3.90 K; in [2], 0.69 K; in [3], 4.13 K; in assay [4], 3.27 K; in assay [5], -0.40 K; in [6], -0.93 K. For the same compound, the dTm came to 5.05 K in [7], 0.52 K in assay [8], 6.40 K in [9] and 6.37 K in assay [10].

Consider `O=C(Nc1cccc(-c2c[nH]c3ncnc(N4CCOCC4)c23)c1)c1cccn(-c2ccc(F)cc2)c1=O` [Compound 4], for which the dTm in assay [1] is listed as 4.33 K; in [2], 0.73 K; in assay [3] it was 3.03 K; in [4], 2.81 K; in assay [5], -0.41 K; in assay [6], -0.10 K. For the same compound, the dTm in assay [7] is recorded as 7.31 K; in [8], 0.47 K; in assay [9], -5.10 K; in assay [10] it was 3.26 K.

For the compound `Cc1cc(NC(=O)C2(C(=O)Nc3ccc(F)cc3)CC2)cc(-c2c[nH]c3ncnc(N4CCOCC4)c23)c1` [Compound 6], the dTm in assay [1] is 1.73 K; in assay [2], 1.87 K; in assay [3], 1.23 K; in [4], 1.49 K; in assay [5] it was 0.62 K; in assay [6], 0.23 K. The dTm was 0.00 K in [7], 0.05 K in [8], 2.54 K in assay [9] and 5.63 K in [10].

Take `O=C(Nc1cccc(-c2c[nH]c3ncnc(N4CCOCC4)c23)c1)C1(C(=O)Nc2cccc3c2CCC3)CC1` [Compound 11]: the dTm in assay [1] is on record as 1.96 K; in [2] it was 1.38 K; in assay [3], 1.65 K; in assay [4], -11.24 K; in assay [5] it was -0.26 K; in [6] it was 0.84 K. Further, the dTm was -11.70 K in [7], -1.56 K in assay [8], 1.05 K in assay [9] and 8.56 K in assay [10].

For `O=C(Nc1ccccc1)C1(C(=O)Nc2cccc(-c3c[nH]c4ncnc(N5CCOCC5)c34)c2)CC1` [Compound 12], the dTm in assay [1] is on record as 3.09 K; in [2], 0.82 K; in [3], 3.05 K; in assay [4] it was 2.37 K; in assay [5], -0.15 K; in assay [6], -0.19 K. The dTm was 4.49 K in [7], 1.92 K in assay [8], 7.05 K in assay [9] and 7.72 K in assay [10].

Consider `O=C(Nc1ccc(Cl)cc1)C1(C(=O)Nc2cccc(-c3c[nH]c4ncnc(N5CCOCC5)c34)c2)CC1` [Compound 13], for which the dTm in assay [1] is given as 3.57 K; in assay [2], 1.60 K; in assay [3] it was 5.52 K; in assay [4], 5.42 K; in assay [5] it was 0.68 K; in assay [6], 1.06 K. Also, the dTm in assay [7] is on record as 7.95 K; in [8], 2.76 K; in assay [9], 9.70 K; in [10], 6.46 K.

Take `COc1cc2c(Oc3ccc(NC(=O)C4(C(=O)Nc5ccc(F)cc5)CC4)cc3F)ccnc2cc1OCCCN1CCOCC1` [Foretinib, reference compound]: the dTm in assay [2] was 0.83 K; in assay [3] it was 18.83 K; in assay [4], 12.70 K; in [5], 0.33 K; in assay [6] it was -0.49 K; in assay [7], 8.95 K. Moreover, the dTm in assay [8] is 1.91 K; in assay [9] it was 0.00 K; in assay [10] it was 1.65 K.

With `Cn1cc(-c2c[nH]c3ncnc(N4CCOCC4)c23)cc1C#N` [PFE-360], the dTm was 2.46 K in [1]; 0.00751 K in assay [2]; 3.22 K in [3]; -0.08 K in assay [4]; 0.0427 K in assay [5]; -0.13 K in [6]. For the same compound, the dTm in assay [7] is reported as 4.12 K; in assay [9], 0.26 K; in assay [10], 14.15 K.

As for `Cc1ccc(C(=O)Nc2ccc(CN3CCN(C)CC3)c(C(F)(F)F)c2)cc1C#Cc1cnc2cccnn12` [Ponatinib, reference compound], the dTm is on record as 18.52 K in assay [1] and 0.07 K in assay [6].

`CNC(=O)c1cc(Oc2ccc(NC(=O)Nc3cc(C(C)(C)C)nn3-c3ccc4ncccc4c3)c(F)c2)ccn1` [Rebastinib, reference compound]: the dTm was 0.87 K in assay [2]; 10.49 K in assay [3]; 4.28 K in [4]; 0.44 K in [5]; 3.06 K in [6]; 7.33 K in [7]. Besides, the results for the dTm in [8], in assay [9] and in assay [10] were 2.06 K, 1.06 K and 0.72 K, respectively.

As to `CN[C@@H]1C[C@H]2O[C@@](C)([C@@H]1OC)n1c3ccccc3c3c4c(c5c6ccccc6n2c5c31)C(=O)NC4` [Staurosporine], the results for the dTm in assay [1], in assay [8] and in [10] were 13.08 K, 4.25 K and 18.68 K, respectively.

Values taken from article PMC12136037, “Type II kinase inhibitors that target Parkinson’s disease–associated LRRK2” (Science Advances, 2025).
